Some test systems named below: CAKI-1 renal; A549 NSCLC; NCI-H226 lung; MDA-MB-435; OVCAR-3 ovarian; EKVX NSCLC; ACHN renal; MDA-N; SF-295 CNS; HOP-92 NSCLC.
What all share (assay): growth of human tumour cells (NCI), 48 h

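Step 1: Grow cells in 96-well plates. Step 2: Expose to compound for 48 hours at 5 concentrations. Step 3: Interpolate endpoints linearly; if unreached, use highest concentration. The concentration for full growth arrest is given as TGI.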

Two molecules from PubChem BioAssay (NCI) can be followed below.

`O=C(O)COc1cc(-c2ccccc2)nc2ccccc12`: the TGI was greater than 100 µM with CAKI-1 renal; greater than 100 µM in the experiment on A549 NSCLC; greater than 100 µM with NCI-H226 lung; 73.8 µM in the experiment with MDA-MB-435; greater than 100 µM in the experiment with OVCAR-3 ovarian; greater than 100 µM in the experiment on EKVX NSCLC. In addition, the TGI was greater than 100 µM in the experiment with ACHN renal, 85.7 µM in the experiment on MDA-N, greater than 100 µM in the experiment on SF-295 CNS and greater than 100 µM with HOP-92 NSCLC.

Regarding `COc1ccc(C2SCC(=O)N2NC(=O)C(C)Oc2ccc(Cl)cc2Cl)cc1` (stereo not given), the TGI is 47.3 µM in the experiment on CAKI-1 renal; greater than 100 µM with A549 NSCLC; 33.6 µM with NCI-H226 lung; greater than 100 µM with MDA-MB-435; greater than 100 µM in the experiment with OVCAR-3 ovarian; greater than 100 µM with EKVX NSCLC. Besides, the TGI in the experiment on ACHN renal is greater than 100 µM; in the experiment on MDA-N, greater than 100 µM; in the experiment with SF-295 CNS, greater than 100 µM; in the experiment on HOP-92 NSCLC it was 63.6 µM.
